Measured values published in patent publication EP3381905A1, “NOVEL ANTIVIRAL COMPOUNDS” (priority 2017, dated 2018).

Tests used:
[1] = tested on: U2OS cells; assay: cytotoxicity, CellTiter-Glo Luminescent Cell Viability Assay; settings: for cytotoxicity profile (normalized cell viability): 250 nM to 50 µM, 36 h (Figure 7)
[2] = tested on: GFP expressing HAd-C5 vector; assay: fluorescent plaque forming assay (adenoviral propagation / virus spread); format: cell-based, adenovirus
[3] = tested on: MARV VP40 with the late domain motif of Ebola virus (PTAPPEY) VP40 (VP40ELD); format: cell-based, Marburg virus
[4] = tested on: HAd-C5-wt virus; assay: adenoviral early gene expression by real-time PCR; format: cell-based, adenovirus; settings: U2OS cells, 5 µM, 4 hours post-infection, vs vehicle
[5] = tested on: HAd-C5; assay: adenovirus genome nuclear import (nuclear protein VII staining, confocal microscopy); format: cell-based; settings: U2OS cells, 5 µM, 2500 pp/cell, 2 hours post-infection, vs DMSO
[6] = tested on: MARV

## Clc1ccc(-c2ccc(Cn3ccnc3)c(-c3ccc(Cl)cc3Cl)c2)c(Cl)c1 [CT2-10, 1-((2,2",4,4"-Tetrachloro-[1,1':3',1"-terphenyl]-4'-yl)methyl)-1H-imidazole]
[1]
  cytotoxicity profile (normalized cell viability): cytotoxicity profiles similar to Sulconazole

## Clc1ccc(-c2cc(-n3ccnc3)c(-c3ccc(Cl)cc3Cl)o2)c(Cl)c1 [CT2-13, 1-(2,5-bis(2,4-Dichlorophenyl)furan-3-yl)-1H-imidazole]
[1]
  cytotoxicity profile (normalized cell viability): cytotoxicity profiles similar to Sulconazole

## Nc1ccn(C[C@@H](CO)OCP(=O)(O)O)c(=O)n1 [Cidofovir]
[2]; 10 µM and 20 µM (Example 8, Figure 6)
  inhibition of adenoviral propagation (plaque size): did not show significant inhibition

## Clc1ccc(CO/N=C(\Cn2ccnc2)c2ccc(Cl)cc2Cl)c(Cl)c1 [Oxiconazole]
[1]
  cytotoxicity profile (normalized cell viability): cytotoxicity profiles similar to Sulconazole

## Clc1ccc(CSC(Cn2ccnc2)c2ccc(Cl)cc2Cl)cc1 (stereo not shown) [Sulconazole]
[2]; 5 µM, HEK293 cells, 0.1 pp/cell HAd-C5-GFP, six days after infection, vs DMSO (Example 3, Figure 1, P<0.0001)
  plaque size (adenovirus virus propagation): significant reduced plaque size
[3]
  VP40 VLP release: inhibit
[4]
  early viral genes expression (E1A, E1B, E4 orf6/7): significant reduction of early viral genes expression
[5]
  nuclear accumulation of viral genomes (protein VII): significantly reduces the nuclear accumulation of viral genomes
[6]
  reduction of MARV titers (TCID50): 1-2 log
[1]; 5 µM, 36 h
  cytotoxicity: not cytotoxic
